Legend:
Assay type in all cases: biochemical
hXPG = hXPG (Homo sapiens (Human), UniProt P28715); assay: Enzymatic IC50 assay, FAM-labeled DNA oligomer substrate, fluorescence intensity (XPG); conditions: hXPG 100 nM, substrate 100 nM, reaction time 120 minutes, 23° C.
Outline: (§1)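 FEN1, EXO1 or XPG was preincubated 15 min with compound, then the FAM-labelled DNA oligomer substrate was added in Tris-HCl pH 8.0 with 10 mM MgCl2 at 23° C. FEN1 was 70 pM with 100 nM substrate for 20 min, EXO1 6 nM with 30 nM for 60 min, and XPG 100 nM with 100 nM for 120 min. Reactions were EDTA-stopped and read by fluorescence intensity.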

hFEN1 = hFEN1 (Homo sapiens (Human), UniProt P39748); assay: Enzymatic IC50 assay, FAM-labeled DNA oligomer substrate, fluorescence intensity (FEN1); conditions: hFEN1 70 pM, substrate 100 nM, reaction time 20 minutes, 23° C.
hFEN1, sequence (P39748 whole entry): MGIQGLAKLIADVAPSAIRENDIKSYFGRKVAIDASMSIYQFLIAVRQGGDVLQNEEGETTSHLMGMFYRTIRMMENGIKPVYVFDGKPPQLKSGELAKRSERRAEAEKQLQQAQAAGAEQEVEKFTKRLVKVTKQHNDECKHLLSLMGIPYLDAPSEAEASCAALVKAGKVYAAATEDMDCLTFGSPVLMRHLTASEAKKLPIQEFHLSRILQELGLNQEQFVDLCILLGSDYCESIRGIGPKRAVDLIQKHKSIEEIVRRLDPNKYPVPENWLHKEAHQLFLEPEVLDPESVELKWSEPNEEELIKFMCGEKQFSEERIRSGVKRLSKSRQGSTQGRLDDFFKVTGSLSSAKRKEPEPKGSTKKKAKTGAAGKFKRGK
Outline: as §1

hEXO1, Isoform1 = hEXO1, Isoform1 (Homo sapiens (Human), UniProt Q9UQ84); assay: Enzymatic IC50 assay, FAM-labeled DNA oligomer substrate, fluorescence intensity (EXO1); conditions: hEXO1 6 nM, substrate 30 nM, reaction time 60 minutes, 23° C.
hEXO1, Isoform1, sequence (Q9UQ84 whole entry, canonical isoform): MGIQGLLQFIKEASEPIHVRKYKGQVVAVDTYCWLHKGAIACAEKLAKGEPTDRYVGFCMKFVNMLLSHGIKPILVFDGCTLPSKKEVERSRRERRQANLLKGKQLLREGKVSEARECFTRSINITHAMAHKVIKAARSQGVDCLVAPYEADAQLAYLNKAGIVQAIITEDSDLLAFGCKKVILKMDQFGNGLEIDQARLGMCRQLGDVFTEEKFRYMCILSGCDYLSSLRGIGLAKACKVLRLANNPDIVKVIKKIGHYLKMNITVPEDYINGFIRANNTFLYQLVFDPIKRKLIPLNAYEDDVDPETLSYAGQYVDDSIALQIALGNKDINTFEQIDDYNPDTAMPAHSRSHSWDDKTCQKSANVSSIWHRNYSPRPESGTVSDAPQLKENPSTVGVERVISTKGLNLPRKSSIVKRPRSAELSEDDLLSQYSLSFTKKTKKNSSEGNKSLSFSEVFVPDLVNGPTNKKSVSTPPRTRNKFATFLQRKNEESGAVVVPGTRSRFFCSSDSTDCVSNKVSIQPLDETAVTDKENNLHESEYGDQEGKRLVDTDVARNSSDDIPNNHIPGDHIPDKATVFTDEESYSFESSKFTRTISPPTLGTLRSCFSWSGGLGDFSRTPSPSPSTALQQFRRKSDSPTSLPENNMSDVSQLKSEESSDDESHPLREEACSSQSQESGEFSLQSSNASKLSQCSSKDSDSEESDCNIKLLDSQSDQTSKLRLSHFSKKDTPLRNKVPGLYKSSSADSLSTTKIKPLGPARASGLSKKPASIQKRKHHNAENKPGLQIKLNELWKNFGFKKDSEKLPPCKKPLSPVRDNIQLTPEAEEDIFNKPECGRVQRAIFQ
Outline: as §1

hXPG, sequence (P28715 whole entry): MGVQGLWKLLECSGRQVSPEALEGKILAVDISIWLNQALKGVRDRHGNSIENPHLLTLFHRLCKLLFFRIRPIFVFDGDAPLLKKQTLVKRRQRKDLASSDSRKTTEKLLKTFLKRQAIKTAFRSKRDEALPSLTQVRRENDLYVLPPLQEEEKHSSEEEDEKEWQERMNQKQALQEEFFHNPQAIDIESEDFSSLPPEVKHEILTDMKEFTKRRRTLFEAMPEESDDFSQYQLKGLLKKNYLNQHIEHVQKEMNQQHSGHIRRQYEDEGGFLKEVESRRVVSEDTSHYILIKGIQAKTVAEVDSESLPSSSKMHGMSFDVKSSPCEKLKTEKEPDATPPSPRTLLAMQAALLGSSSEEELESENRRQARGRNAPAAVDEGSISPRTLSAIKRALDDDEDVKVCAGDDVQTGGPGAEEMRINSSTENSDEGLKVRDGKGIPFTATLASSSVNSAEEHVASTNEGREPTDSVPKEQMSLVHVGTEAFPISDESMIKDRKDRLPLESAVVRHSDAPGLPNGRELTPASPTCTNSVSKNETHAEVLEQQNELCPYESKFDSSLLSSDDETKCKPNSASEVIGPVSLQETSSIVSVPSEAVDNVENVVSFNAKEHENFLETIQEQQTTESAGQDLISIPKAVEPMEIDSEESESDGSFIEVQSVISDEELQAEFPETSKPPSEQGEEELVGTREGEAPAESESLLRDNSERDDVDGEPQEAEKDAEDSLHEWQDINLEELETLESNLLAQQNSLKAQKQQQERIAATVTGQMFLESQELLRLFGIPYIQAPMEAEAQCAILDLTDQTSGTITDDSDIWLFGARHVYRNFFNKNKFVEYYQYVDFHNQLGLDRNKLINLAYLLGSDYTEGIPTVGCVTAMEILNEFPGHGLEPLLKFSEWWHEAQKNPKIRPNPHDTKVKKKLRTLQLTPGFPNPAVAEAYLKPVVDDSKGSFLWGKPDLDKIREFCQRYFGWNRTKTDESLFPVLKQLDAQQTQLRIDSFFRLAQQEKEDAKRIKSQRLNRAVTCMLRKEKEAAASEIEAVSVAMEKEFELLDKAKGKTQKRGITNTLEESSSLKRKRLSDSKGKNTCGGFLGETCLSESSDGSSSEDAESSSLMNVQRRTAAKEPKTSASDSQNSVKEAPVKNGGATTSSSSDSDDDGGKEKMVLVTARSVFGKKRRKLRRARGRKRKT

Row | SMILES | IC50 (hXPG) [nM] | IC50 (hFEN1) [nM] | IC50 (hEXO1, Isoform1) [nM]
1 | COc1ccc(Cn2c(=O)c(O)c(C(=O)O)c3sc(C4CC4)cc32)cc1 [Example 30, 2-cyclopropyl-6-hydroxy-4-(4-methoxybenzyl)-5-oxo-4,5-dihydrothieno[3,2-b]pyridine-7-carboxylic acid] | 2250 to 10000 | 750 to 2250 | 250 to 750
2 | O=C(O)c1c(O)c(=O)n(Cc2ccccc2)c2ccsc12 [Example 3, 4-benzyl-6-hydroxy-5-oxo-4,5-dihydrothieno[3,2-b]pyridine-7-carboxylic acid] | 2250 to 10000 | 750 to 2250 | 2250 to 10000
3 | N#Cc1ccccc1-n1cc(Cn2c(=O)c(O)c(C(=O)O)c3sccc32)cn1 [Example 111, 4-{[1-(2-cyanophenyl)-1H-pyrazol-4-yl]methyl}-6-hydroxy-5-oxo-4,5-dihydrothieno[3,2-b]pyridine-7-carboxylic acid] | 750 to 2250 | 250 to 750 | 250 to 750
4 | O=C(O)c1c(O)c(=O)n(Cc2cnn(-c3ccccc3)c2)c2ccsc12 [Example 84, 6-hydroxy-5-oxo-4-[(1-phenyl-1H-pyrazol-4-yl)methyl]-4,5-dihydrothieno[3,2-b]pyridine-7-carboxylic acid] | 250 to 750 | < 200 | 250 to 750
5 | CS(=O)(=O)c1ccc(Cn2c(=O)c(O)c(C(=O)O)c3sccc32)cc1 [Example 50, 6-hydroxy-4-(4-(methylsulfonyl)benzyl)-5-oxo-4,5-dihydrothieno[3,2-b]pyridine-7-carboxylic acid] | 2250 to 10000 | 250 to 750 | 750 to 2250
6 | O=C(O)c1c(O)c(=O)n(Cc2cnn(Cc3cnc4ccccn34)c2)c2ccsc12 [Example 144, 6-hydroxy-4-{[1-(imidazo[1,2-a]pyridin-3-ylmethyl)-1H-pyrazol-4-yl]methyl}-5-oxo-4,5-dihydrothieno[3,2-b]pyridine-7-carboxylic acid] | > 10000 | < 200 | 2250 to 10000
7 | O=C(O)c1c(O)c(=O)n(Cc2cnn(-c3cccnc3)c2)c2ccsc12 [Example 87, 6-hydroxy-5-oxo-4-{[1-(pyridin-3-yl)-1H-pyrazol-4-yl]methyl}-4,5-dihydrothieno[3,2-b]pyridine-7-carboxylic acid] | 750 to 2250 | < 200 | 250 to 750
8 | N#Cc1ccc(Cn2cc(Cn3c(=O)c(O)c(C(=O)O)c4sccc43)cn2)c(C(F)(F)F)c1 [Example 146, 4-({1-[4-cyano-2-(trifluoromethyl)benzyl]-1H-pyrazol-4-yl}methyl)-6-hydroxy-5-oxo-4,5-dihydrothieno[3,2-b]pyridine-7-carboxylic acid] | 750 to 2250 | < 200 | 2250 to 10000
9 | CS(=O)(=O)Nc1cccc(Cn2c(=O)c(O)c(C(=O)O)c3sccc32)c1 [Example 78, 6-hydroxy-4-[3-(methylsulfonamido)benzyl]-5-oxo-4,5-dihydrothieno[3,2-b]pyridine-7-carboxylic acid] | 2250 to 10000 | 250 to 750 | 750 to 2250
10 | O=C(O)c1c(O)c(=O)n(Cc2cnn(CC(=O)N3CC[C@H](O)C3)c2)c2ccsc12 [Example 154, (S)-6-hydroxy-4-({1-[2-(3-hydroxypyrrolidin-1-yl)-2-oxoethyl]-1H-pyrazol-4-yl}methyl)-5-oxo-4,5-dihydrothieno[3,2-b]pyridine-7-carboxylic acid] | > 10000 | 250 to 750 | > 10000
11 | O=C(O)c1c(O)c(=O)n(Cc2cnn(Cc3cccc4nonc34)c2)c2ccsc12 [Example 140, 4-{[1-(benzo[c][1,2,5]oxadiazol-4-ylmethyl)-1H-pyrazol-4-yl]methyl}-6-hydroxy-5-oxo-4,5-dihydrothieno[3,2-b]pyridine-7-carboxylic acid] | 2250 to 10000 | < 200 | 2250 to 10000
12 | CC(=O)Nc1ccc(Cn2c(=O)c(O)c(C(=O)O)c3sccc32)cc1 [Example 40, 4-(4-acetamidobenzyl)-6-hydroxy-5-oxo-4,5-dihydrothieno[3,2-b]pyridine-7-carboxylic acid] | 2250 to 10000 | < 200 | 2250 to 10000
13 | O=C(O)c1c(O)c(=O)n(Cc2cnn(CCc3ccncc3)c2)c2ccsc12 [Example 28, 6-hydroxy-5-oxo-4-({1-[2-(4-pyridyl)ethyl]pyrazol-4-yl}methyl)thieno[3,2-b]pyridine-7-carboxylic acid] | 2250 to 10000 | < 200 | 2250 to 10000
14 | COc1ccc(Cn2c(=O)c(O)c(C(=O)O)c3sc(Cc4ccccc4)cc32)cc1 [Example 29, 2-benzyl-6-hydroxy-4-(4-methoxybenzyl)-5-oxo-4,5-dihydrothieno[3,2-b]pyridine-7-carboxylic acid] | 2250 to 10000 | 2250 to 10000 | 2250 to 10000

From patent US11584755B2 (IDEAYA BIOSCIENCES, INC., priority 2017, dated 2023)
